Data as given in ChEMBL document CHEMBL1148275, “Discovery of thiophene-2-carboxylic acids as potent inhibitors of HCV NS5B polymerase and HCV subgenomic RNA replication. Part 1: Sulfonamides” (Bioorg Med Chem Lett, 2004).

Columns and labels:
[1] = test system: Huh-7; experiment: Inhibitory concentration against Huh-7 human hepatoma cell line that supports replication of subgenomic HCV RNA replicons (replicon cell line); assay type: functional, cell-based
[2] = test system: Huh-7; experiment: Concentration required to suppress [3H]thymidine uptake by 50% in Huh-7 cells; assay type: functional; details: Homo sapiens
[3] = molecular target: Genome polyprotein (Hepatitis C virus genotype 1a (isolate 1) (HCV), UniProt P26664); experiment: Inhibition of HCV NS5B polymerase
Chain of Genome polyprotein (P26664 2421-3011 limits assumed): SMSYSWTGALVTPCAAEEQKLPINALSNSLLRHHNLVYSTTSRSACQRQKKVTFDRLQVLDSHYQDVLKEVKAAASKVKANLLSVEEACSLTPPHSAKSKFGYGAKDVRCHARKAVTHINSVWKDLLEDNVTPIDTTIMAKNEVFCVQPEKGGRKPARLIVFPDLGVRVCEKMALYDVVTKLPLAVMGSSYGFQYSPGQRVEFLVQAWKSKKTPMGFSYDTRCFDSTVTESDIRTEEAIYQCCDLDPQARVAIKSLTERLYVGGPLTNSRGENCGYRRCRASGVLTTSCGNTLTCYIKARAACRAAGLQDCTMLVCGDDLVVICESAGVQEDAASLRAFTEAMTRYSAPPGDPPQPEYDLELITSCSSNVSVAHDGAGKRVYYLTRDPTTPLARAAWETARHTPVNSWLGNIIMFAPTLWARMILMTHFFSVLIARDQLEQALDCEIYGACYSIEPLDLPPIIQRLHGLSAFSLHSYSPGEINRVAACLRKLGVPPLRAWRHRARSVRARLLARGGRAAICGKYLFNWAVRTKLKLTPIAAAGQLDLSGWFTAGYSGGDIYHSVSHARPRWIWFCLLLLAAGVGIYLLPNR

Row | Structure (SMILES) | IC50 [1] | IC50 [3] | CC50 [2]
1 | Cc1cc(S(=O)(=O)Nc2cc(-c3ccccc3)sc2C(=O)O)c(C)cc1Cl | 14 µM | 5.4 µM | 80 µM
2 | Cc1cc(S(=O)(=O)Nc2cc(-c3ccccc3)sc2C(N)=O)c(C)cc1Cl | – | 14 µM | –
3 | Cc1ccc(S(=O)(=O)Nc2cc(-c3ccccc3)sc2C(=O)O)c(C)c1 | – | 1 µM | 57 µM
4 | O=C(Nc1cc(-c2ccccc2)sc1C(=O)O)Oc1ccc(Cl)cc1 | – | 13 µM | –
5 | Cc1ccc(C)c(S(=O)(=O)Nc2cc(-c3ccccc3)sc2C(=O)O)c1 | 11 µM | 13 µM | 24 µM
6 | Cc1ccccc1S(=O)(=O)Nc1cc(C(=O)O)sc1-c1ccccc1 | – | > 50 µM | –
7 | CC(=O)c1ccc(-c2cc(NS(=O)(=O)c3ccccc3C)c(C(=O)O)s2)cc1 | 12 µM | 1.4 µM | 147 µM
8 | Cc1ccccc1S(=O)(=O)Nc1sc(-c2ccccc2)cc1C(=O)O | – | 20 µM | –
9 | CC(=O)c1ccc(-c2cc(NS(=O)(=O)c3ccc(C)cc3C)c(C(=O)O)s2)cc1 | 8 µM | 0.39 µM | 100 µM
10 | O=C(O)C(Cc1ccccc1)N(Cc1cccc(C(F)(F)F)c1)C(=O)c1ccc(Cl)cc1Cl (stereo not given) | – | 1.8 µM | –
11 | Cc1ccccc1S(=O)(=O)Nc1cc(-c2ccc(S(C)(=O)=O)cc2)sc1C(=O)O | > 100 µM | 1.8 µM | > 200 µM

Second part, led by results:

Row | IC50 [1] | IC50 [3] | Structure (SMILES) | CC50 [2]
12 | 33 µM | 4.6 µM | Cc1ccc(S(=O)(=O)Nc2cc(-c3ccccc3)sc2C(=O)O)cc1 | 79 µM
13 | 24 µM | 5.2 µM | Cc1ccccc1S(=O)(=O)Nc1cc(-c2ccccc2)sc1C(=O)O | 76 µM
14 | 13 µM | 0.75 µM | Cc1cc(Cl)ccc1S(=O)(=O)Nc1cc(-c2ccccc2)sc1C(=O)O | 54 µM
15 | 77 µM | 4.1 µM | O=C(O)c1sc(-c2ccccc2)cc1NS(=O)(=O)c1ccc(Cl)cc1 | 92 µM
16 | 100 µM | 7.4 µM | Cc1cccc(S(=O)(=O)Nc2cc(-c3ccccc3)sc2C(=O)O)c1 | 112 µM
17 | – | 12 µM | Cc1ccc(C(=O)Nc2cc(-c3ccccc3)sc2C(=O)O)cc1 | –
18 | – | 14 µM | Cc1ccccc1C(=O)Nc1cc(-c2ccccc2)sc1C(=O)O | –
19 | – | > 50 µM | O=C(Nc1ccc(Cl)cc1)Nc1cc(-c2ccccc2)sc1C(=O)O | –
